Assay [1] concerns soybeans. The assay is described as follows: Greenhouse spray of glyphosate (0.75 lb AI per 10 gallons per acre) with or without sulfate adjuvant on soybean. The assay is classed as in vivo, Glycine max. The settings on record: for height reduction of soybean, statistical comparison with the no adjuvant case / weight reduction of soybean, statistical comparison with the no adjuvant case: 0 ppm water hardness and 342 ppm water hardness; for Plant Height Soybean % Control 15 DAT / Plant Weight Soybean % Control 15 DAT: no sulfate adjuvant. The source says: (§1) The formulations shown in Table 3 and Table 4 are either glyphosate and ammonium sulfate (AMS) or glyphosate and isopropylammonium sulfate (MIPAS). In Table 3 and Table 4, 0 ppm hardness refers to the absence of minerals such as calcium ions and 342 ppm hardness refers to the amount of calcium ions present. The moles of sulfate indicate the amount of isopropylammonium sulfate or ammonium sulfate per liter. The aqueous solution was applied to the plots at a level of 10 gallons per acre. The two tested plants were soybeans (Glycine max) and grain sorghum (Milo), (Sorghum bicolar).
(§2) The herbicidal solutions were applied in a greenhouse using a Spray chamber with an FF nozzle having a nozzle size 8001EVS. The spray apparatus was operated at 38 psi and the height of the nozzle was 9.75 inches. The watering frequency was every 6 hours for 5 minutes. The daytime temperature was 85° F. and the nighttime temperature was 70° F. with a 16 hour day. The soybean was 4-4.5 inches with one trifoliate leaf present when the herbicidal solution was applied. The grain sorghum was 4-8 inches with 3-4 leaves present when the herbicidal solution was applied.
(§3) The Figures show values of moles of ammonium sulfate or isopropylammonium sulfate per liter. The actual solution used on the grain sorghum contained 0.13 pounds of glyphosate active ingredient per 10 gallons of water per acre. The actual solution used on the soybean contained 0.75 pounds glyphosate active ingredient per 10 gallons of water per acre.
(§4) FIGS. 5 and 9 show the height of sorghum and soybean, respectively, when distilled water was used, as a percent reduction of the height of the control after 15 days. FIGS. 6 and 10 show the height of sorghum and soybean, respectively, when hard water was used, as a percent reduction of the height of the control after 15 days. FIGS. 7 and 11 show the fresh weight of sorghum and soybean, respectively, when distilled water was used, as a percent reduction of the weight of the control after 15 days. FIGS. 8 and 12 show the fresh weight of sorghum and soybean, respectively, when hard water was used, as a percent reduction of the weight of the control after 15 days. The plants were harvested and weighed to determine the fresh weight.

Assay [2] deals with Velvetleaf. The assay can be described thus: Cabinet spray of glyphosate (about 0.63 lb AI per 10 gallons per acre) with or without sulfate adjuvant on velvetleaf. It counts as in vivo, ipomoea hederacea (L.) jacq. Var. integriuscula gray. The settings on record: for Velvet Leaf % Control 7 DAT / Velvet Leaf % Control 14 DAT / Velvet Leaf % Control 21 DAT / Velvet Leaf Fresh Weight 21 DAT: no sulfate adjuvant.
Excerpt: as §1, with “1” for “3”, “2” for “4”, “2,” for “4,”, “1000” for “342”, “Morningglory Entireleaf ([…])” for “soybeans (Glycine max)”, “Velvetleaf ([…]). The term YBI in the Figures indicates the adjuvant was isopropylammonium sulfate.” for “grain sorghum (Milo), (Sorghum bicolar).”
(§5) The herbicidal solutions were applied in a cabinet using a Lodrift nozzle having a nozzle size 110015. The spray apparatus was operated at 40 psi using air as the propellant and water as a carrier. The boom height was 13.5 inches. The ground speed was 2.6 miles per hour. The morningglory was at the three-leaf stage when the herbicidal solution was applied. The velvetleaf was 4-6 inches in height when the herbicidal solution was applied. The normalized spray volume was 10 gallons per acre.
(§6) The Figures show values of pounds of ammonium sulfate or isopropylammonium sulfate per hundred gallons. The actual solutions used were nominally ten gallons of the sulfate in water, e.g. one-tenth of the sulfate per hundred gallons of carrier, with twenty fluid ounces of glyphosate. Twenty fluid ounces of glyphosate contains about 0.63 pounds of glyphosate active ingredient (AI) reported as the isopropylammonium. The glyphosate active ingredient (AI) as the isopropylammonium salt is related to the glyphosate acid equivalents (AE) by the formula: (0.7142)(AI)=AE.
(§7) FIGS. 1 and 3 show the fresh weight of morningglory and velvetleaf, respectively. The fresh weight was determined by cutting the stem of the plant flush with the ground and weighing the plant. The weight is reported as grams per pot since a single plant was grown in each pot. FIGS. 2 and 4 show the percent control at 7, 14 and 21 days for morningglory and velvetleaf, respectively.
(§8) Bartlett's test (commonly used in the agricultural business) was used to statistically analyze the results.

Assay [3] relates to Morningglory Entireleaf. The assay can be described thus: Cabinet spray of glyphosate (about 0.63 lb AI per 10 gallons per acre) with or without sulfate adjuvant on morningglory. It counts as in vivo, abutilon theophrasti medik. The settings on record: for Morning Glory % Control 7 DAT / Morning Glory % Control 14 DAT / Morning Glory % Control 21 DAT / Morning Glory Fresh Weight 21 DAT: no sulfate adjuvant.
Excerpt: as §1, with “1” for “3”, “2” for “4”, “2,” for “4,”, “1000” for “342”, “Morningglory Entireleaf ([…])” for “soybeans (Glycine max)”, “Velvetleaf ([…]). The term YBI in the Figures indicates the adjuvant was isopropylammonium sulfate.” for “grain sorghum (Milo), (Sorghum bicolar).”
as §5, §6, §7

In assay [4] the test system is grain sorghum (Milo). The assay is described as follows: Greenhouse spray of glyphosate (0.13 lb AI per 10 gallons per acre) with or without sulfate adjuvant on grain sorghum. The assay is classed as in vivo, Sorghum bicolar. The settings on record: for Plant Height Sorghum % Control 15 DAT / Plant Weight Sorghum % Control 15 DAT: no sulfate adjuvant.
Excerpt: as §1, §2, §3, §4, §8

Setting [5] is: water hardness 0 ppm, AMS at the two highest concentrations, all MIPAS concentrations.
The mark [6] stands for this setting: water hardness 1000 ppm, higher concentrations of AMS, all MIPAS.
[7] abbreviates: water hardness 1000 ppm, two higher concentrations of AMS, all the MIPAS treatments.
Where [8] appears, read: 342 ppm of water hardness, three highest concentrations of MIPAS, two higher concentrations of AMS.

Regarding `CC(C)N.CC(C)N.O=S(=O)(O)O` [MIPAS, isopropylammonium sulfate], in assay [1], the “height reduction of soybean, statistical comparison with the no adjuvant case” value is on record as “not significantly different from the no adjuvant case” and the “weight reduction of soybean, statistical comparison with the no adjuvant case” value was “not significantly different from the no adjuvant case”. Moreover, in assay [2] (water hardness 0 ppm), the “fresh weight of velvetleaf, statistical comparison with no adjuvant (Bartlett's test)” value is given as “no statistical difference”. For the same molecule, the “height reduction of velvetleaf, statistical comparison with the no adjuvant case (Bartlett's test)” value in assay [2] (water hardness 0 ppm and 1000 ppm) was “statistically different from the no adjuvant case”. In addition, the “height reduction of velvetleaf, statistical comparison of MIPAS with AMS (Bartlett's test)” value in assay [2] (water hardness 0 ppm, high MIPAS concentrations) was “statistically different from the AMS results”. Besides, in assay [2] (water hardness 1000 ppm), the “fresh weight of velvetleaf, statistical comparison of MIPAS with AMS (Bartlett's test)” value is reported as “no statistically significant difference” and the “height reduction of velvetleaf, statistical comparison of MIPAS with AMS (Bartlett's test)” value is given as “not statistically significant”. Besides, in assay [3] (water hardness 0 ppm), the “fresh weight of morningglory, statistical comparison of MIPAS with AMS (Bartlett's test)” value is “no statistically significant difference”; the “fresh weight of morningglory, statistical comparison with the no adjuvant case (Bartlett's test)” value is listed as “statistical difference”; the “height reduction of morningglory, statistical comparison of MIPAS with AMS (Bartlett's test)” value was “no statistically significant difference”. Moreover, the “height reduction of morningglory, statistical comparison with the no adjuvant case (Bartlett's test)” value in assay [3] (setting [5]) is recorded as “statistically different from the no adjuvant case”. Further, in assay [3] (water hardness 1000 ppm), the “fresh weight of morningglory, statistical comparison of MIPAS with AMS (Bartlett's test)” value was “no statistically significant difference” and the “height reduction of morningglory, statistical comparison of MIPAS with AMS (Bartlett's test)” value is recorded as “not statistically significant”. For the same molecule, in assay [3] (setting [6]), the “fresh weight of morningglory, statistical comparison with the no adjuvant case (Bartlett's test)” value was “statistically different from the no adjuvant case”. The “height reduction of morningglory, statistical comparison with the no adjuvant case (Bartlett's test)” value in assay [3] (setting [7]) is listed as “statistically different from the no adjuvant case”. Also, in assay [4] (0 ppm water hardness), the “fresh weight of sorghum, statistical comparison with the no adjuvant case (Bartlett's test)” value is recorded as “not significantly different from the no adjuvant case” and the “height reduction of sorghum, statistical comparison with the no adjuvant case (Bartlett's test)” value was “not significantly different from the no adjuvant case”. Besides, in assay [4] (342 ppm of water hardness), the “fresh weight of sorghum, statistical comparison of MIPAS with AMS (Bartlett's test)” value is reported as “not significantly different from each other”; the “height reduction of sorghum, statistical comparison of MIPAS with AMS (Bartlett's test)” value is reported as “not significantly different than the AMS results”; the “height reduction of sorghum, statistical comparison with the no adjuvant case (Bartlett's test)” value is “significantly different than the no adjuvant case”. Also, in assay [4] (setting [8]), the “fresh weight of sorghum, statistical comparison with the no adjuvant case (Bartlett's test)” value is recorded as “significantly different than the no adjuvant case”.

`O=C(O)CNCP(=O)(O)O` [Glyphosate, N-phosphonomethylglycine]: in assay [1] (water hardness 0 ppm), the “Plant Height Soybean % Control 15 DAT” value turned out to be 47.55% and the “Plant Weight Soybean % Control 15 DAT” value came out at 75.60%. Moreover, in assay [1] (water hardness 342 ppm), the “Plant Height Soybean % Control 15 DAT” value stood at 47.77% and the “Plant Weight Soybean % Control 15 DAT” value came out at 59.20%. In addition, in assay [2] (water hardness 0 ppm), the “Velvet Leaf % Control 7 DAT” value amounted to 52%, the “Velvet Leaf % Control 14 DAT” value amounted to 84%, the “Velvet Leaf % Control 21 DAT” value worked out at 88% and the “Velvet Leaf Fresh Weight 21 DAT” value was determined as 1.1 grams per pot. Also, in assay [2] (water hardness 1000 ppm), the “Velvet Leaf % Control 7 DAT” value amounted to 48%, the “Velvet Leaf % Control 14 DAT” value is 56%, the “Velvet Leaf % Control 21 DAT” value came to 52% and the “Velvet Leaf Fresh Weight 21 DAT” value turned out to be 1.8 grams per pot. In addition, in assay [3] (water hardness 0 ppm), the “Morning Glory % Control 7 DAT” value came out at 56%, the “Morning Glory % Control 14 DAT” value amounted to 56%, the “Morning Glory % Control 21 DAT” value was found to be 50% and the “Morning Glory Fresh Weight 21 DAT” value is listed as 1.4 grams per pot. Also, in assay [3] (water hardness 1000 ppm), the “Morning Glory % Control 7 DAT” value was 51%, the “Morning Glory % Control 14 DAT” value is on record as 48%, the “Morning Glory % Control 21 DAT” value turned out to be 46% and the “Morning Glory Fresh Weight 21 DAT” value is listed as 1.9 grams per pot. Further, in assay [4] (water hardness 0 ppm), the “Plant Height Sorghum % Control 15 DAT” value was determined as 41.04% and the “Plant Weight Sorghum % Control 15 DAT” value came out at 59.86%. In assay [4] (water hardness 342 ppm), the “Plant Height Sorghum % Control 15 DAT” value was found to be 14.55% and the “Plant Weight Sorghum % Control 15 DAT” value stood at 40.97%.

For the molecule `N.N.O=S(=O)(O)O` [AMS, ammonium sulfate], the “height reduction of soybean, statistical comparison with the no adjuvant case” value in assay [1] was “not significantly different from the no adjuvant case”. For the same molecule, in assay [1], the “weight reduction of soybean, statistical comparison with the no adjuvant case” value was “not significantly different from the no adjuvant case”. Moreover, the “fresh weight of velvetleaf, statistical comparison with no adjuvant (Bartlett's test)” value in assay [2] (water hardness 0 ppm) is given as “no statistical difference”; in assay [2] (water hardness 1000 ppm, MIPAS at the two higher concentrations), “no statistical difference”. Moreover, the “height reduction of morningglory, statistical comparison with the no adjuvant case (Bartlett's test)” value in assay [3] (setting [5]) and in assay [3] (setting [7]) was “statistically different from the no adjuvant case” throughout. Also, the “fresh weight of morningglory, statistical comparison with the no adjuvant case (Bartlett's test)” value in assay [3] (setting [6]) was “statistical difference”. The “fresh weight of sorghum, statistical comparison with the no adjuvant case (Bartlett's test)” value in assay [4] (0 ppm water hardness) is reported as “not significantly different from the no adjuvant case”; in assay [4] (setting [8]), “significantly different than the no adjuvant case”. Moreover, in assay [4] (0 ppm water hardness), the “height reduction of sorghum, statistical comparison with the no adjuvant case (Bartlett's test)” value was “not significantly different from the no adjuvant case”.

These data come from patent US20040138064A1, “Adjuvant for water soluble herbicides” (priority 2002, published 2004).
